# Experimental data as given in patent US20240309018A1, “THIAZOLE-LACTAM-SPIROHETEROCYCLIC COMPOUNDS AND APPLICATIONS THEREOF” (D3 BIO (WUXI) CO., LTD, priority 2021, published 2024).
# “Also recorded” adds a separate entry of the source.
# What was measured:
# canine plasma albumin = experiment: Plasma protein binding (ultracentrifugation), canine; assay type: in vitro ADME; further: tested at 0.2 µM
# Experimental: (§1) The binding degree of the assay compound to human/mouse/rat/canine/monkey plasma albumin was studied.
# (§2) • 1) Matrix preparation: on the day of the assay, plasma was thawed in cold water and centrifuged at 3220 rpm for 5 min to remove all clots. The pH of the resulting plasma was measured and adjusted to 7.4±0.1 using 1% phosphoric acid or IN sodium hydroxide as needed. • 2) Dilution procedure for the assay compound: the assay compound was dissolved in dimethyl sulfoxide (DMSO) to prepare stock solutions with concentrations of 10 mM and 2 mM, respectively. A 40 μM working solution was prepared by diluting 2 μL of stock solution (2 mM) with 98 μL of DMSO. A 400 μM working solution of the control compound was prepared by diluting 10 μL of stock solution with 240 μL of DMSO. The working solution of the compound (5 μL) was mixed well with a blank matrix (995 μL) at a ratio of 1:200 to prepare a loading matrix.
# (§3) • a) An equal volume of 30 μL of loading matrix (n=2) was transferred to a sample collection plate to prepare a time 0 (TO) sample for residue determination. The sample was immediately matched with the corresponding blank buffer to a final volume of 60 μL, and the volume ratio of plasma to buffer in each well was 1:1. […] The mixture was centrifuged at 4000 rpm for 20 min and 100 μL of supernatant from each sample was analyzed by LC-MS/MS.
# [1] = Body weight and tolerance in A375 model animals; assay type: in vivo; settings: 12.5, 25 and 50 mg/kg PO BID, to the 21st day
# Experimental: (§4) • 3) Daily observation of assay animals: The development of this assay protocol and any modifications were evaluated and approved by the Institutional Animal Care and Use Committee (IACUC). The use and welfare of assay animals were carried out in accordance with the regulations of the Association for Assessment and Accreditation of Laboratory Animal Care (AAALAC). Animals were monitored daily for health and death. […] Animal deaths and side effects in each group were recorded based on the number of animals in each group. • 4) Formulation of assay compound • a) Vehicle group: 5% DMSO+95% (20% HP-β-CD). • b) Assay compound group: A quantitative amount of the assay compound was weighed in a formulation bottle. […] A corresponding volume of 20% HP-β-CD was added and then the mixture was vortexed to obtain a homogeneous suspension. • 5) Tumor measurement and assay indicator: • a) Tumor diameter was measured twice a week with a vernier caliper. The calculation formula of tumor volume was: TV=1/2×a×b^2, wherein a and b represent the long and short diameters of tumor, respectively: • b) The tumor-inhibitory efficacy of the compound was evaluated by TGI (%). […]
# human plasma albumin = experiment: Plasma protein binding (ultracentrifugation), human; assay type: in vitro ADME; further: tested at 0.2 µM
# Experimental: as §1, §2, §3
# monkey plasma albumin = experiment: Plasma protein binding (ultracentrifugation), monkey; assay type: in vitro ADME; further: tested at 0.2 µM
# Experimental: as §1, §2, §3
# [2] = tested on: human melanoma A375 cells; experiment: In vivo efficacy in subcutaneous xenograft tumor model of human melanoma A375; settings: PO, BID, day 21, BALB/c nude mouse A375 xenograft
# Experimental: The anti-tumor effect of WX001 was evaluated using a subcutaneous xenograft tumor model of human melanoma A375 cells in nude mouse.
# • Species: mouse • Strain: BALB/c nude mouse • Age: 6-8 weeks old • Gender: female • Body weight: 18-22 grams • Supplier: Vital River Laboratory Animal Technology Co., Ltd.
# • 1) Assay cells and culture: Human melanoma A375 cells were cultured in monolayer in vitro. The culture conditions were DMEM medium plus 10% fetal bovine serum, and a 37° C. 5% CO2 incubator. Routine digestion with trypsin-EDTA was performed twice a week for passage. When the cell saturation was 80%-90% and the amount reached the requirement, the cells were harvested, counted, and inoculated: • 2) Tumor tissue inoculation and grouping: 0.1 mL (5×10^5) of A375 cells were subcutaneously inoculated into the right armpit of each mouse. When the average tumor volume reached 170 mm^3, the animals were randomly divided into 4 groups and the administration was started.
# as §4, with “The use and welfare of assay animals were carried out in accordance with the regulations of the Association for Assessment and Accreditation of Laboratory Animal Care (AAALAC).” left out
# mouse plasma albumin = experiment: Plasma protein binding (ultracentrifugation), mouse; assay type: in vitro ADME; further: tested at 0.2 µM
# Experimental: as §1, §2, §3
smiles,measurement,setting,value
Cc1cccc(CN2C(=O)c3nc(-c4nc(Nc5ccnn5C)ncc4C)sc3C23COC3)n1 [WX001],Plasma protein binding rate (unbound %),canine plasma albumin,14.3%
same,body weight of animals,[1],did not decrease significantly; also recorded: not observed to decrease significantly
same,tolerance,[1],good
same,Plasma protein binding rate (unbound %),human plasma albumin,15.9%
same,Plasma protein binding rate (unbound %),monkey plasma albumin,14.2%
same,TGI,[2]; 12.5 mg/kg,45%
same,TGI,[2]; 25 mg/kg,58%
same,TGI,[2]; 50 mg/kg,102%
same,Plasma protein binding rate (unbound %),mouse plasma albumin,11.7%
